According to PubChem BioAssay (NCI):
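Following 48 hours of exposure in 96-well plates, responses at five concentrations were used to interpolate endpoints linearly. Abbreviation: GI50, concentration required for 50% inhibition of growth. Definition used: TGI = concentration required for complete inhibition of growth.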

Legend:
Test in all cases: growth of human tumour cells (NCI), 48 h
786-0 renal = tested on: 786-0 renal
A498 renal = tested on: A498 renal
A549 NSCLC = tested on: A549 NSCLC
ACHN renal = tested on: ACHN renal
BT-549 breast = tested on: BT-549 breast
CAKI-1 renal = tested on: CAKI-1 renal
CCRF-CEM leukemia = tested on: CCRF-CEM leukemia
COLO 205 colon = tested on: COLO 205 colon
DU-145 prostate = tested on: DU-145 prostate
HCC-2998 colon = tested on: HCC-2998 colon
HCT-116 colon = tested on: HCT-116 colon
HCT-15 colon = tested on: HCT-15 colon
HOP-62 NSCLC = tested on: HOP-62 NSCLC
HOP-92 NSCLC = tested on: HOP-92 NSCLC
HS 578T breast = tested on: HS 578T breast
HT29 colon = tested on: HT29 colon
IGROV1 ovarian = tested on: IGROV1 ovarian
K-562 leukemia = tested on: K-562 leukemia
KM12 colon = tested on: KM12 colon
LOX IMVI melanoma = tested on: LOX IMVI melanoma
M14 melanoma = tested on: M14 melanoma
MALME-3M melanoma = tested on: MALME-3M melanoma
MCF7 breast = tested on: MCF7 breast
MDA-MB-231 breast = tested on: MDA-MB-231 breast
MDA-MB-435 = tested on: MDA-MB-435
MOLT-4 leukemia = tested on: MOLT-4 leukemia
NCI-H226 lung = tested on: NCI-H226 lung
NCI-H23 lung = tested on: NCI-H23 lung
NCI-H460 lung = tested on: NCI-H460 lung
NCI-H522 lung = tested on: NCI-H522 lung
NCI/ADR-RES ovarian = tested on: NCI/ADR-RES ovarian
OVCAR-3 ovarian = tested on: OVCAR-3 ovarian
OVCAR-4 ovarian = tested on: OVCAR-4 ovarian
OVCAR-5 ovarian = tested on: OVCAR-5 ovarian
OVCAR-8 ovarian = tested on: OVCAR-8 ovarian
PC-3 prostate = tested on: PC-3 prostate
RPMI-8226 leukemia = tested on: RPMI-8226 leukemia
RXF 393 renal = tested on: RXF 393 renal
SF-268 CNS = tested on: SF-268 CNS
SF-295 CNS = tested on: SF-295 CNS
SF-539 CNS = tested on: SF-539 CNS
SK-MEL-2 melanoma = tested on: SK-MEL-2 melanoma
SK-MEL-28 melanoma = tested on: SK-MEL-28 melanoma
SK-MEL-5 melanoma = tested on: SK-MEL-5 melanoma
SK-OV-3 ovarian = tested on: SK-OV-3 ovarian
SN12C renal = tested on: SN12C renal
SNB-19 CNS = tested on: SNB-19 CNS
SNB-75 CNS = tested on: SNB-75 CNS
SR leukemia = tested on: SR leukemia
SW-620 colon = tested on: SW-620 colon
T-47D breast = tested on: T-47D breast
TK-10 renal = tested on: TK-10 renal
U251 CNS = tested on: U251 CNS
UACC-257 melanoma = tested on: UACC-257 melanoma
UACC-62 melanoma = tested on: UACC-62 melanoma
UO-31 renal = tested on: UO-31 renal

Q: With `COc1ccc(/C=C/C(=O)c2cccc(B(O)O)c2)cc1O` as the molecule, how does the GI50 (786-0 renal) read?
A: 4.33 µM

Q: And the TGI (786-0 renal)?
A: 40.8 µM

Q: And the GI50 (A498 renal)?
A: 2.31 µM

Q: What about the TGI (A498 renal) of the same molecule?
A: 11.2 µM

Q: And the GI50 (A549 NSCLC)?
A: 3.35 µM

Q: And the TGI (A549 NSCLC)?
A: 46.9 µM

Q: What about the GI50 (ACHN renal) of the same molecule?
A: 4.59 µM

Q: And the TGI (ACHN renal)?
A: 71.1 µM

Q: And the GI50 (BT-549 breast)?
A: 2.82 µM

Q: What about the TGI (BT-549 breast) of the same molecule?
A: 14.2 µM

Q: And the GI50 (CAKI-1 renal)?
A: 3.43 µM

Q: What about the TGI (CAKI-1 renal) of the same molecule?
A: 19.3 µM

Q: What about the GI50 (CCRF-CEM leukemia) of the same molecule?
A: 3.13 µM

Q: And the TGI (CCRF-CEM leukemia)?
A: 14.1 µM

Q: And the GI50 (COLO 205 colon)?
A: 13 µM

Q: And the TGI (COLO 205 colon)?
A: 27.5 µM

Q: And the GI50 (DU-145 prostate)?
A: 2.8 µM

Q: What about the TGI (DU-145 prostate) of the same molecule?
A: 7.88 µM

Q: And the GI50 (HCC-2998 colon)?
A: 2.67 µM

Q: And the TGI (HCC-2998 colon)?
A: 7.47 µM

Q: What about the GI50 (HCT-116 colon) of the same molecule?
A: 2.55 µM

Q: And the TGI (HCT-116 colon)?
A: 10.7 µM

Q: And the GI50 (HCT-15 colon)?
A: 2.44 µM

Q: And the TGI (HCT-15 colon)?
A: 12.3 µM

Q: What about the GI50 (HOP-62 NSCLC) of the same molecule?
A: 4.24 µM

Q: And the TGI (HOP-62 NSCLC)?
A: 18.6 µM

Q: What about the GI50 (HOP-92 NSCLC) of the same molecule?
A: 1.42 µM

Q: What about the TGI (HOP-92 NSCLC) of the same molecule?
A: 29.7 µM

Q: And the GI50 (HS 578T breast)?
A: 2.28 µM

Q: What about the TGI (HS 578T breast) of the same molecule?
A: 8.87 µM

Q: What about the GI50 (HT29 colon) of the same molecule?
A: 9.77 µM

Q: And the TGI (HT29 colon)?
A: 44.4 µM

Q: And the GI50 (IGROV1 ovarian)?
A: 5.39 µM

Q: What about the TGI (IGROV1 ovarian) of the same molecule?
A: 33 µM

Q: And the GI50 (K-562 leukemia)?
A: 1.33 µM

Q: What about the TGI (K-562 leukemia) of the same molecule?
A: > 100 µM

Q: And the GI50 (KM12 colon)?
A: 2.51 µM

Q: What about the TGI (KM12 colon) of the same molecule?
A: 6.47 µM

Q: And the GI50 (LOX IMVI melanoma)?
A: 2.07 µM

Q: And the TGI (LOX IMVI melanoma)?
A: 5.37 µM

Q: What about the GI50 (M14 melanoma) of the same molecule?
A: 4.23 µM

Q: What about the TGI (M14 melanoma) of the same molecule?
A: 18.6 µM

Q: What about the GI50 (MALME-3M melanoma) of the same molecule?
A: 15.3 µM

Q: What about the TGI (MALME-3M melanoma) of the same molecule?
A: 32.1 µM

Q: What about the GI50 (MCF7 breast) of the same molecule?
A: 2.21 µM

Q: What about the TGI (MCF7 breast) of the same molecule?
A: 12.4 µM

Q: What about the GI50 (MDA-MB-231 breast) of the same molecule?
A: 3.44 µM

Q: What about the TGI (MDA-MB-231 breast) of the same molecule?
A: > 100 µM

Q: And the GI50 (MDA-MB-435)?
A: 1.89 µM

Q: And the TGI (MDA-MB-435)?
A: 4.57 µM

Q: What about the GI50 (MOLT-4 leukemia) of the same molecule?
A: 4.04 µM

Q: And the TGI (MOLT-4 leukemia)?
A: > 100 µM

Q: What about the GI50 (NCI-H226 lung) of the same molecule?
A: 4.79 µM

Q: What about the TGI (NCI-H226 lung) of the same molecule?
A: > 100 µM

Q: What about the GI50 (NCI-H23 lung) of the same molecule?
A: 4.67 µM

Q: And the TGI (NCI-H23 lung)?
A: 22.7 µM

Q: What about the GI50 (NCI-H460 lung) of the same molecule?
A: 3.11 µM

Q: And the TGI (NCI-H460 lung)?
A: 11.5 µM

Q: What about the GI50 (NCI-H522 lung) of the same molecule?
A: 3.33 µM

Q: What about the TGI (NCI-H522 lung) of the same molecule?
A: 13.5 µM

Q: And the GI50 (NCI/ADR-RES ovarian)?
A: 3.09 µM

Q: And the TGI (NCI/ADR-RES ovarian)?
A: 28.6 µM

Q: And the GI50 (OVCAR-3 ovarian)?
A: 3.44 µM

Q: What about the TGI (OVCAR-3 ovarian) of the same molecule?
A: 10.9 µM

Q: What about the GI50 (OVCAR-4 ovarian) of the same molecule?
A: 7.91 µM

Q: What about the TGI (OVCAR-4 ovarian) of the same molecule?
A: 21 µM

Q: And the GI50 (OVCAR-5 ovarian)?
A: 9.25 µM

Q: And the TGI (OVCAR-5 ovarian)?
A: 31.6 µM

Q: And the GI50 (OVCAR-8 ovarian)?
A: 3.82 µM

Q: What about the TGI (OVCAR-8 ovarian) of the same molecule?
A: > 100 µM

Q: And the GI50 (PC-3 prostate)?
A: 6.18 µM

Q: What about the TGI (PC-3 prostate) of the same molecule?
A: 32.9 µM

Q: And the GI50 (RPMI-8226 leukemia)?
A: 3.39 µM

Q: What about the TGI (RPMI-8226 leukemia) of the same molecule?
A: 33.3 µM

Q: And the GI50 (RXF 393 renal)?
A: 2.8 µM

Q: And the TGI (RXF 393 renal)?
A: 11.4 µM

Q: What about the GI50 (SF-268 CNS) of the same molecule?
A: 3.46 µM

Q: What about the TGI (SF-268 CNS) of the same molecule?
A: 19.9 µM

Q: And the GI50 (SF-295 CNS)?
A: 3.17 µM

Q: And the TGI (SF-295 CNS)?
A: 13.2 µM

Q: What about the GI50 (SF-539 CNS) of the same molecule?
A: 2.4 µM

Q: And the TGI (SF-539 CNS)?
A: 8.46 µM

Q: What about the GI50 (SK-MEL-2 melanoma) of the same molecule?
A: 15.6 µM

Q: And the TGI (SK-MEL-2 melanoma)?
A: 58.9 µM

Q: What about the GI50 (SK-MEL-28 melanoma) of the same molecule?
A: 6.72 µM

Q: And the TGI (SK-MEL-28 melanoma)?
A: > 100 µM

Q: And the GI50 (SK-MEL-5 melanoma)?
A: 3.76 µM

Q: And the TGI (SK-MEL-5 melanoma)?
A: 14.9 µM

Q: What about the GI50 (SK-OV-3 ovarian) of the same molecule?
A: 6.14 µM

Q: And the TGI (SK-OV-3 ovarian)?
A: > 100 µM

Q: And the GI50 (SN12C renal)?
A: 3.26 µM

Q: What about the TGI (SN12C renal) of the same molecule?
A: 25.7 µM

Q: What about the GI50 (SNB-19 CNS) of the same molecule?
A: 5.1 µM

Q: And the TGI (SNB-19 CNS)?
A: 27.3 µM

Q: What about the GI50 (SNB-75 CNS) of the same molecule?
A: 2.74 µM

Q: What about the TGI (SNB-75 CNS) of the same molecule?
A: 12.2 µM

Q: And the GI50 (SR leukemia)?
A: 2.56 µM

Q: And the TGI (SR leukemia)?
A: 30.3 µM

Q: What about the GI50 (SW-620 colon) of the same molecule?
A: 2.79 µM

Q: What about the TGI (SW-620 colon) of the same molecule?
A: 11.5 µM

Q: And the GI50 (T-47D breast)?
A: 3.01 µM

Q: And the TGI (T-47D breast)?
A: 16 µM

Q: And the GI50 (TK-10 renal)?
A: 4.4 µM

Q: What about the TGI (TK-10 renal) of the same molecule?
A: 24.1 µM

Q: What about the GI50 (U251 CNS) of the same molecule?
A: 3.41 µM

Q: What about the TGI (U251 CNS) of the same molecule?
A: 13.2 µM

Q: And the GI50 (UACC-257 melanoma)?
A: 10.6 µM

Q: What about the TGI (UACC-257 melanoma) of the same molecule?
A: 30.9 µM

Q: What about the GI50 (UACC-62 melanoma) of the same molecule?
A: 3.83 µM

Q: And the TGI (UACC-62 melanoma)?
A: 17.3 µM

Q: And the GI50 (UO-31 renal)?
A: 3.63 µM

Q: And the TGI (UO-31 renal)?
A: 17.4 µM
